Assay results taken from patent US4880807A, “Nicotinoylpiperazines useful for treatment of convulsions” (Institut De Recherches Chimiques et Biologiques Appliquees …, priority 1987, dated 1989).

Key:
[1] = system: convulsions induced by pentetrazole; assay: animal or person
Source text: (§1) The anticonvulsant properties were investigated on male mice, thirty minutes after the oral administration of the substances to be studied, by the induction of convulsive seizures.

[2] = in vivo; type: in vivo; details: mouse, in vivo, po; per os, male mice, Rota-rod 30 min after administration; dose causing 50% of animals to fall; read-out: TD50 (50% neurotoxic dose)
Source text: (§2) The animals (divided into groups each containing ten male mice per dose and per product) are installed on the rod and their fall is observed over the next two minutes.

[3] = system: male mice; assay: in vivo; type: in vivo; details: TD50 per os/ED50 per os
Source text: as §2

[4] = system: convulsions induced by supra maximal electroshock (MCE); assay: animal or person
Description: as §1
These seizures are caused either by the intraperitoneal injection of pentetrazole (125 mg/kg) or by electrical stimulation of the cornea (supra maximal electroshock, abbreviated to MCE).

[5] = oral toxicity in mice (LD50, mortality over 14 days); details: mouse, in vivo, po
Description: (§3) The toxicity of the products to be studied was investigated by the oral administration, using an esophageal tube, of each of the said products to male mice with a body weight of 18 to 22 g, divided into groups each containing 10 to 20 animals. The mortality was recorded over a 14-day period.

[6] = system: male mice; assay: as above; details: per os, male mice; repeated in Table IV; 20160 min
Description: as §3

SMILES: CCCC(CCC)C(=O)[O-].[Na+] [VALP, sodium valproate, reference compound]
- Therapeutic index PTZ (LD50/ED50) ([1]; LD50 per os/ED50 per os, PTZ convulsions): 4.0
- ED50 ([1]; Mus musculus, po, 0.5 h, read-out: ED50 in respect of convulsions induced by PTZ): 244 mg/kg
- TD50 at 0.5 h [2]: 670 mg/kg
- Protection index MCE (TD50/ED50) ([3]; MCE convulsions): 2.8
- Protection index PTZ (TD50/ED50) ([3]; PTZ convulsions): 2.7
- Therapeutic index MCE (LD50/ED50) ([4]; LD50 per os/ED50 per os, MCE convulsions): 4.0
- ED50 ([4]; Mus musculus, po, 0.5 h, read-out: ED50 in respect of convulsions induced by MCE): 242 mg/kg
- LD50 at 336 h [5]: 977 mg/kg
- LD50 [6]: 977 mg/kg
